# From patent publication US5112858A, “Antibiotic, aranorosin, a microbiological process for the preparation thereof, and the use thereof as a pharmaceutical” (Hoechst Aktiengesellschaft, priority 1988, dated 1992)
# What was measured:
# [1] = system: Gram-positive and Gram-negative bacteria as well as yeasts and filamentous fungi; test: Antibacterial and antifungal activity (summary statement); type: cell-based
# From the text: (§1) The minimum inhibitory concentrations of the new antibiotic aranorosin required to inhibit various strains of bacteria and fungi are listed in Table I.
# Cercospora beticola = test: MIC against bacteria and fungi (Table I); type: cell-based; conditions: read-out: Minimum inhibitory concentration (MIC)
# From the text: as §1
# E. coli Ese 2231 = test: MIC against bacteria and fungi (Table I); type: cell-based; conditions: Escherichia coli, ESE2231, read-out: Minimum inhibitory concentration (MIC)
# From the text: as §1
# [2] = system: Enterobacter cloacae P 99; test: MIC against bacteria and fungi (Table I); type: cell-based; conditions: P99, read-out: Minimum inhibitory concentration (MIC)
# From the text: as §1
# Streptococcus faecalis = test: MIC against bacteria and fungi (Table I); type: cell-based; conditions: Enterococcus faecalis, read-out: Minimum inhibitory concentration (MIC)
# From the text: as §1
# E. coli TEM = test: MIC against bacteria and fungi (Table I); type: cell-based; conditions: Escherichia coli, read-out: Minimum inhibitory concentration (MIC)
# From the text: as §1
# [3] = system: Staphylococcus aureus R 85; test: MIC against bacteria and fungi (Table I); type: cell-based; conditions: R85, read-out: Minimum inhibitory concentration (MIC)
# From the text: as §1
# [4] = system: Pseudomonas aeruginosa 1771; test: MIC against bacteria and fungi (Table I); type: cell-based; conditions: read-out: Minimum inhibitory concentration (MIC)
# From the text: as §1
# [5] = system: Streptococcus pyogenes 77 A; test: MIC against bacteria and fungi (Table I); type: cell-based; conditions: read-out: Minimum inhibitory concentration (MIC)
# From the text: as §1
# Botrytis cinerea = test: MIC against bacteria and fungi (Table I); type: cell-based; conditions: read-out: Minimum inhibitory concentration (MIC)
# From the text: as §1
# [6] = system: Klebsiella aerogenes 1082 E; test: MIC against bacteria and fungi (Table I); type: cell-based; conditions: read-out: Minimum inhibitory concentration (MIC)
# From the text: as §1
# [7] = system: Streptococcus pyogenes 308A; test: MIC against bacteria and fungi (Table I); type: cell-based; conditions: read-out: Minimum inhibitory concentration (MIC)
# From the text: as §1
# Aspergillus niger = test: MIC against bacteria and fungi (Table I); type: cell-based; conditions: read-out: Minimum inhibitory concentration (MIC)
# From the text: as §1
# E. coli 1507 E = test: MIC against bacteria and fungi (Table I); type: cell-based; conditions: Escherichia coli, read-out: Minimum inhibitory concentration (MIC)
# From the text: as §1
# [8] = system: Pseudomonas aeruginosa ATCC 9027; test: MIC against bacteria and fungi (Table I); type: cell-based; conditions: ATCC9027, read-out: Minimum inhibitory concentration (MIC)
# From the text: as §1
# E. coli 055 = test: MIC against bacteria and fungi (Table I); type: cell-based; conditions: Escherichia coli, read-out: Minimum inhibitory concentration (MIC)
# From the text: as §1
# Penicillium italicum = test: MIC against bacteria and fungi (Table I); type: cell-based; conditions: read-out: Minimum inhibitory concentration (MIC)
# From the text: as §1
# [9] = system: Enterobacter cloacae 1321 E; test: MIC against bacteria and fungi (Table I); type: cell-based; conditions: read-out: Minimum inhibitory concentration (MIC)
# From the text: as §1
# [10] = system: Staphylococcus aureus 285; test: MIC against bacteria and fungi (Table I); type: cell-based; conditions: read-out: Minimum inhibitory concentration (MIC)
# From the text: as §1
# Saccaromyces cerevisiae = test: MIC against bacteria and fungi (Table I); type: cell-based; conditions: read-out: Minimum inhibitory concentration (MIC)
# From the text: as §1
# Candida albicans = test: MIC against bacteria and fungi (Table I); type: cell-based; conditions: read-out: Minimum inhibitory concentration (MIC)
# From the text: as §1
# [11] = system: Pseudomonas aeruginosa 1592 E; test: MIC against bacteria and fungi (Table I); type: cell-based; conditions: read-out: Minimum inhibitory concentration (MIC)
# From the text: as §1
# [12] = system: Klebsiella aerogenes 1522 E; test: MIC against bacteria and fungi (Table I); type: cell-based; conditions: read-out: Minimum inhibitory concentration (MIC)
# From the text: as §1
# Salmonella typhimurium = test: MIC against bacteria and fungi (Table I); type: cell-based; conditions: Salmonella enterica, read-out: Minimum inhibitory concentration (MIC)
# From the text: as §1
# [13] = system: Staphylococcus aureus 209 P; test: MIC against bacteria and fungi (Table I); type: cell-based; conditions: read-out: Minimum inhibitory concentration (MIC)
# From the text: as §1
# E. coli DC O = test: MIC against bacteria and fungi (Table I); type: cell-based; conditions: Escherichia coli, read-out: Minimum inhibitory concentration (MIC)
# From the text: as §1
# Sarcina lutea = test: MIC against bacteria and fungi (Table I); type: cell-based; conditions: Micrococcus luteus, read-out: Minimum inhibitory concentration (MIC)
# From the text: as §1
# E. coli DC 2 = test: MIC against bacteria and fungi (Table I); type: cell-based; conditions: Escherichia coli, DC2, read-out: Minimum inhibitory concentration (MIC)
# From the text: as §1
# Bacillus subtilis = test: MIC against bacteria and fungi (Table I); type: cell-based; conditions: read-out: Minimum inhibitory concentration (MIC)
# From the text: as §1
# [14] = system: Staphylococcus aureus 20204; test: MIC against bacteria and fungi (Table I); type: cell-based; conditions: read-out: Minimum inhibitory concentration (MIC)
# From the text: as §1
# [15] = system: Staphylococcus aureus SG 511; test: MIC against bacteria and fungi (Table I); type: cell-based; conditions: SG511, read-out: Minimum inhibitory concentration (MIC)
# From the text: as §1
# [16] = system: Staphylococcus aureus 503; test: MIC against bacteria and fungi (Table I); type: cell-based; conditions: read-out: Minimum inhibitory concentration (MIC)
# From the text: as §1
# Microspora gypseum = test: MIC against bacteria and fungi (Table I); type: cell-based; conditions: read-out: Minimum inhibitory concentration (MIC)
# From the text: as §1
# [17] = system: Pseudomonas aeruginosa 1771 M; test: MIC against bacteria and fungi (Table I); type: cell-based; conditions: read-out: Minimum inhibitory concentration (MIC)
# From the text: as §1
# Solubility = type: physicochemical
# [18] = system: malignant tumors and leukemias; test: Cytostatic activity (statement); type: cell-based; conditions: general statement, no data given
compound,measurement,setting,value
CCCCCCC(C)/C=C(C)/C=C/C(=O)NC1CC2(OC1O)C1OC1C(=O)C1OC12 (stereo not shown) [aranorosin],"effectiveness against bacteria, yeasts and filamentous fungi",[1]; conclusion from Table I,effective against Gram-positive and Gram-negative bacteria as well as yeasts and filamentous fungi
same,bactericidal and fungicidal properties,[1]; general statement,has bactericidal and fungicidal properties
same,MIC,Cercospora beticola,3 µg/mL
same,MIC,E. coli Ese 2231,> 200 µg/mL
same,MIC,[2],100 µg/mL
same,MIC,Streptococcus faecalis,3 µg/mL
same,MIC,E. coli TEM,100 µg/mL
same,MIC,[3],1.5 µg/mL
same,MIC,[4],> 100 µg/mL
same,MIC,[5],0.78 µg/mL
same,MIC,Botrytis cinerea,30 µg/mL
same,MIC,[6],50 µg/mL
same,MIC,[7],0.78 µg/mL
same,MIC,Aspergillus niger,7.5 µg/mL
same,MIC,E. coli 1507 E,100 µg/mL
same,MIC,[8],> 100 µg/mL
same,MIC,E. coli 055,100 µg/mL
same,MIC,Penicillium italicum,30 µg/mL
same,MIC,[9],100 µg/mL
same,MIC,[10],0.78 µg/mL
same,MIC,Saccaromyces cerevisiae,500 µg/mL
same,MIC,Candida albicans,30 µg/mL
same,MIC,[11],> 100 µg/mL
same,MIC,[12],100 µg/mL
same,MIC,Salmonella typhimurium,50 µg/mL
same,MIC,[13],1.5 µg/mL
same,MIC,E. coli DC O,100 µg/mL
same,MIC,Sarcina lutea,1.5 µg/mL
same,MIC,E. coli DC 2,25 µg/mL
same,MIC,Bacillus subtilis,1.5 µg/mL
same,MIC,[14],1.5 µg/mL
same,MIC,[15],0.78 µg/mL
same,MIC,[16],0.78 µg/mL
same,MIC,Microspora gypseum,3 µg/mL
same,MIC,[17],50 µg/mL
same,Solubility,Solubility; in benzene,sparingly soluble
same,Solubility,"Solubility; in diethyl ether, chloroform, acetone, ethyl acetate, dimethyl sulfoxide and methanol",soluble
same,Solubility,Solubility; in petroleum ether,Insoluble
same,Solubility,Solubility; in water,Insoluble
same,cytostatic properties,[18],has cytostatic properties
